Assay results from US20250092043A1, “Kinase Inhibitors and Degraders” (Incyte Corporation, priority 2023, published 2025).

What follows are compounds tested against T1, JAK2 (Homo sapiens, UniProt O60674, V617F) (assay: Western blot quantitation of JAK2 degradation in SET2 cells). Conditions: 0.5 μM compound (cells marked **), 8 hours treatment, western blot densitometry vs. DMSO vehicle.
T1 construct: their effect on JAK2 protein degradation in SET2 cells; host or cells: SET2 cells (human essential thrombocythemia)
T1 sequence (O60674 whole entry V617F): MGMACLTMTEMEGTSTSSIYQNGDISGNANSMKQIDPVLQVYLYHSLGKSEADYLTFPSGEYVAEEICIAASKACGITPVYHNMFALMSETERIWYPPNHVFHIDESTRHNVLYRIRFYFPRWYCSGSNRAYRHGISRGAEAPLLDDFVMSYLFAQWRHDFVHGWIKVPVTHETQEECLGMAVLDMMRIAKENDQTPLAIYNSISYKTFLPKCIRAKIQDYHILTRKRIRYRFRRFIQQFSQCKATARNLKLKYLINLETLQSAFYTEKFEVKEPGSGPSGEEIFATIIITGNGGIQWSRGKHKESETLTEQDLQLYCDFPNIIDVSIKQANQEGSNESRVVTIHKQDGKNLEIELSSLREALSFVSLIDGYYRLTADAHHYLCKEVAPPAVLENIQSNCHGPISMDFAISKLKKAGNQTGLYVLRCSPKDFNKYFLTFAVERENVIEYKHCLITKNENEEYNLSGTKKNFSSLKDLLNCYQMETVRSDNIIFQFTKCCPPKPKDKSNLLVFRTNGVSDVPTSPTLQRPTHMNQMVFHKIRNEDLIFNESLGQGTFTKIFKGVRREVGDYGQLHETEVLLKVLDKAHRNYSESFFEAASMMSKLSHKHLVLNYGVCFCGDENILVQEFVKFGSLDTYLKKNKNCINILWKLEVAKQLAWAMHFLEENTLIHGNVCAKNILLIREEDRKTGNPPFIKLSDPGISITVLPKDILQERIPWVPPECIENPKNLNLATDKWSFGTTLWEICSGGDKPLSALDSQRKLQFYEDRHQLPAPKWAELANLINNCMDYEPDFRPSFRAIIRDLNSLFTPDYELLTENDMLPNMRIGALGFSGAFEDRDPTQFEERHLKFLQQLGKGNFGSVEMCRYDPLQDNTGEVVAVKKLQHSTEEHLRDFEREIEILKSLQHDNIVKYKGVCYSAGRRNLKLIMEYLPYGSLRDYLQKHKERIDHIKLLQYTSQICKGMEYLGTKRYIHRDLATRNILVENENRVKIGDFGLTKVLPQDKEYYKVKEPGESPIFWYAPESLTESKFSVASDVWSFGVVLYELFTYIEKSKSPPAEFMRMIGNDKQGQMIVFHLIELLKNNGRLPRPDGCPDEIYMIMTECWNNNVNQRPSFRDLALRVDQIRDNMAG
Type: cell-based
Experimental: Example E. Western Blot Analysis of JAK2 Dependent SET2 Cells Treated with Compounds of the Present Disclosure
SET2 cells (DSMZ, catalog number ACC 608) are isolated from a person with human essential thrombocythemia and carry the JAK2 V617F mutation.
SET2 cells were cultured in RPMI culture medium (Gibco, catalog number 11875085) supplemented with 1% penicillin-streptomycin-glutamine (Thermo Fisher Scientific, catalog number 10378016) and 20% fetal bovine serum (Gibco, catalog number 10438034). Cultured cells were maintained at 37° C., 5% CO2 in the incubator.
Approximately 1,000,000 cells/well were added in 6-well plate containing 1.5 ml culture media with specified concentrations of compounds of the present disclosure or DMSO control. Cells were treated with concentrations of 10 uM, 5 uM, 1 uM, and 0.5 uM. Proteasome inhibitor MG-132 (Cell signaling, catalog number 2194) was added at 20 uM to an additional 10 uM compound treatment. The treatment period was 8 hours. After 8 hours, cells were collected in 1.5 mL microcentrifuge tubes. Tubes were centrifuged at 1500 rpm for 5 min. Supernatant was aspirated and samples were washed with 1 mL of cold PBS. The samples were centrifuged again at 1500 rpm for 5 min, supernatant was aspirated. The sample pellets were lysed using 150 μL of 1× lysing buffer (Cell Signaling Technologies—catalog number 9803S) supplemented with 1× Halt™ Protease and Phosphatase Inhibitor Cocktail (Thermo Fisher Scientific—catalog number 78447). Using Pierce™ BCA Protein Assay Kit (Thermo Fisher Scientific—catalog number 23225), protein concentration of the samples were quantitated. After normalizing sample concentration to approximately 20 ug/well, samples were loaded onto 4-12% Tris-glycine gels. Gels were transferred to nitrocellulose membranes using iBlot 2 Dry Blotting System and iBlot™ 2 Transfer Stacks, nitrocellulose (Thermo Fisher Scientific—catalog number IB23001). Following transfer, membranes were blocked with StartingBlock (Thermo Fisher Scientific—catalog number 37543). After 1 hour of blocking membranes, they were probed for JAK2, pSTAT5, STAT5, CRBN, and GAPDH (Cell Signaling—catalog numbers 3230, 4322, 25656, 71810, and 5174 respectively).
Compounds of the present disclosure were screened at various concentrations to determine their effect on JAK2 protein degradation in SET2 cells, using methods as described above. DMSO was used as the vehicle control with no PROTAC® added. Co-administration of 20 μM of the proteasome inhibitor MG-132 with the PROTAC® compound at its highest concentration (i.e., 5 or 10 μM) tested was conducted to support the hypothesis that the degradation was driven by the ubiquitin-proteosome system (UPS). Degradation was evaluated by western blot densitometry quantitation using the FluorChem M instrument software to analyze the intensity of the JAK2 band signal at various concentrations of PROTAC® compound vs. the JAK2 band signal of the DMSO vehicle. It is noted that ˜82% of JAK2 exists as the V617F mutant, with the remaining 18% of JAK2 being WT. Therefore, if the V617F mutant JAK2 is selectively degraded over the WT, the maximum degradation is ˜80%. Degradation was graded as A: […]; B: ≥40% to <60% degradation; C: ≥20% to <40% degradation, D: <20% to ≥10%; E<10%. ** refers to degradation at 0.5 μM.
In the case of `COC(=O)N[C@@H]1CC[C@@H](n2c(=O)n(C)c3cnc4[nH]c(-c5ccc(C(=O)N6CCC(CN7CCN(c8ccc9c(c8)C(=O)N(C8CCC(=O)NC8=O)C9=O)CC7)CC6)cc5)c(-c5ccc6c(cnn6C(C)C)c5)c4c32)C1` (stereo partly drawn) [Example 34, methyl ((1R,3R)-3-(7-(4-(4-((4-(2-(2,6-dioxopiperidin-3-yl)-1,3-dioxoisoindolin-5-yl)piperazin-1-yl)methyl)piperidine-1-carbonyl)phenyl)-8-(1-isopropyl-1H-indazol-5-yl)-3-methyl-2-oxo-3,6-dihydroimidazo[4,5-d]pyrrolo[2,3-b]pyridin-1(2H)-yl)cyclopentyl) carbamate], the “JAK2 % Degradation in SET2” value is reported as “A** (A: ≥600% degradation)”.

Same assay, conditions: 5 μM compound, 8 hours treatment, western blot densitometry vs. DMSO vehicle
For `COC(=O)N[C@@H]1CC[C@@H](n2c(=O)n(C)c3cnc4[nH]c(-c5ccc(C(=O)N6CCN(CC7CCN(c8cccc9c8C(=O)N(C8CCC(=O)NC8=O)C9=O)CC7)CC6)cc5)c(-c5ccc6c(cnn6C(C)C)c5)c4c32)C1` (stereo partly drawn) [Example 38, methyl ((1R,3R)-3-(7-(4-(4-((1-(2-(2,6-dioxopiperidin-3-yl)-1,3-dioxoisoindolin-4-yl)piperidin-4-yl)methyl)piperazine-1-carbonyl)phenyl)-8-(1-isopropyl-1H-indazol-5-yl)-3-methyl-2-oxo-3,6-dihydroimidazo[4,5-d]pyrrolo[2,3-b]pyridin-1(2H)-yl)cyclopentyl) carbamate], the “JAK2 % Degradation in SET2” value was “A (A: ≥600% degradation)”.
In the case of `COC(=O)N[C@@H]1CC[C@@H](n2c(=O)n(C)c3cnc4[nH]c(-c5ccc(C(=O)N6CCC(CN7CCN(c8cccc9c8C(=O)N(C8CCC(=O)NC8=O)C9)CC7)CC6)cc5)c(-c5ccc6c(cnn6C(C)C)c5)c4c32)C1` (stereo partly drawn) [Example 63, Methyl((1R,3R)-3-(7-(4-(4-((4-(2-(2,6-dioxopiperidin-3-yl)-3-oxoisoindolin-4-yl)piperazin-1-yl)methyl)piperidine-1-carbonyl)phenyl)-8-(1-isopropyl-1H-indazol-5-yl)-3-methyl-2-oxo-3,6-dihydroimidazo[4,5-d]pyrrolo[2,3-b]pyridin-1(2H)-yl)cyclopentyl)carbamate], the “JAK2 % Degradation in SET2” value is reported as “C (C: ≥20% to <40% degradation)”.
For `COC(=O)N[C@@H]1CC[C@@H](n2c(=O)n(C)c3cnc4[nH]c(-c5ccc(CN6CCC(CN7CCN(c8ccc9c(c8)CN(C8CCC(=O)NC8=O)C9=O)CC7)CC6)cc5)c(-c5ccc6c(cnn6C(C)C)c5)c4c32)C1` (stereo partly drawn) [Example 43, Methyl((1R,3R)-3-(7-(4-((4-((4-(2-(2,6-dioxopiperidin-3-yl)-1-oxoisoindolin-5-yl)piperazin-1-yl)methyl)piperidin-1-yl)methyl)phenyl)-8-(1-isopropyl-1H-indazol-5-yl)-3-methyl-2-oxo-3,6-dihydroimidazo[4,5-d]pyrrolo[2,3-b]pyridin-1(2H)-yl)cyclopentyl)carbamate], the “JAK2 % Degradation in SET2” value was “A (A: ≥600% degradation)”.
In the case of `COC(=O)N[C@@H]1CC[C@@H](n2c(=O)n(C)c3cnc4[nH]c(-c5ccc(CN6CCC(CN7CCN(c8cccc9c8C(=O)N(C8CCC(=O)NC8=O)C9=O)CC7)CC6)cc5)c(-c5ccc6c(cnn6C(C)C)c5)c4c32)C1` (stereo partly drawn) [Example 44, Methyl((1R,3R)-3-(7-(4-((4-((4-(2-(2,6-dioxopiperidin-3-yl)-1,3-dioxoisoindolin-4-yl)piperazin-1-yl)methyl)piperidin-1-yl)methyl)phenyl)-8-(1-isopropyl-1H-indazol-5-yl)-3-methyl-2-oxo-3,6-dihydroimidazo[4,5-d]pyrrolo[2,3-b]pyridin-1(2H)-yl)cyclopentyl)carbamate], the “JAK2 % Degradation in SET2” value is reported as “C (C: ≥20% to <40% degradation)”.
With `COC(=O)N[C@@H]1CC[C@@H](n2c(=O)n(C)c3cnc4[nH]c(-c5ccc(CN6CCN(CC7CCN(c8cccc9c8C(=O)N(C8CCC(=O)NC8=O)C9=O)CC7)CC6)cc5)c(-c5ccc6c(cnn6C(C)C)c5)c4c32)C1` (stereo partly drawn) [Example 42, Methyl((1R,3R)-3-(7-(4-((4-((1-(2-(2,6-dioxopiperidin-3-yl)-1,3-dioxoisoindolin-4-yl)piperidin-4-yl)methyl)piperazin-1-yl)methyl)phenyl)-8-(1-isopropyl-1H-indazol-5-yl)-3-methyl-2-oxo-3,6-dihydroimidazo[4,5-d]pyrrolo[2,3-b]pyridin-1(2H)-yl)cyclopentyl)carbamate] the “JAK2 % Degradation in SET2” value was “A (A: ≥600% degradation)”.
In the case of `COC(=O)N[C@@H]1CC[C@@H](n2c(=O)n(C)c3cnc4[nH]c(-c5ccc(C(=O)N6CCN(c7ccc8c(c7)C(=O)N(C7CCC(=O)NC7=O)C8=O)CC6)cc5)c(-c5ccc6c(cnn6C(C)C)c5)c4c32)C1` (stereo partly drawn) [Example 62, Methyl((1R,3R)-3-(7-(4-(4-(2-(2,6-dioxopiperidin-3-yl)-1,3-dioxoisoindolin-5-yl)piperazine-1-carbonyl)phenyl)-8-(1-isopropyl-1H-indazol-5-yl)-3-methyl-2-oxo-3,6-dihydroimidazo[4,5-d]pyrrolo[2,3-b]pyridin-1(2H)-yl)cyclopentyl)carbamate], the “JAK2 % Degradation in SET2” value is reported as “E (E<10%)”.

Same assay, conditions: 10 μM compound, 8 hours treatment, western blot densitometry vs. DMSO vehicle
For `COC(=O)N[C@@H]1CC[C@@H](n2c(=O)n(C)c3cnc4[nH]c(-c5ccc(C(=O)N6CCC(CC(=O)Nc7ccc8c(c7)CN(C7CCC(=O)NC7=O)C8=O)CC6)c(F)c5)c(-c5ccc6c(cnn6C(C)C)c5)c4c32)C1` (stereo partly drawn) [Example 53, Methyl((1R,3R)-3-(7-(4-(4-(2-((2-(2,6-dioxopiperidin-3-yl)-1-oxoisoindolin-5-yl)amino)-2-oxoethyl)piperidine-1-carbonyl)-3-fluorophenyl)-8-(1-isopropyl-1H-indazol-5-yl)-3-methyl-2-oxo-3,6-dihydroimidazo[4,5-d]pyrrolo[2,3-b]pyridin-1(2H)-yl)cyclopentyl)carbamate], the “JAK2 % Degradation in SET2” value was “C (C: ≥20% to <40% degradation)”.
`COC(=O)N[C@@H]1CC[C@@H](n2c(=O)n(C)c3cnc4[nH]c(-c5ccc(C(=O)N6CCC(C(=O)Nc7ccc8c(c7)CN(C7CCC(=O)NC7=O)C8=O)CC6)cc5)c(-c5ccc6c(cnn6C(C)C)c5)c4c32)C1` (stereo partly drawn) [Example 60, Methyl((1R,3R)-3-(7-(4-(4-((2-(2,6-dioxopiperidin-3-yl)-1-oxoisoindolin-5-yl)carbamoyl)piperidine-1-carbonyl)phenyl)-8-(1-isopropyl-1H-indazol-5-yl)-3-methyl-2-oxo-3,6-dihydroimidazo[4,5-d]pyrrolo[2,3-b]pyridin-1(2H)-yl)cyclopentyl)carbamate] was tested, and the “JAK2 % Degradation in SET2” value was “C (C: ≥20% to <40% degradation)”.
`CN[C@@H](C)C(=O)N[C@H](C(=O)N1C[C@@H](NC(=O)CC2CCN(C(=O)c3ccc(-c4[nH]c5ncc6c(c5c4-c4ccc5c(cnn5C(C)C)c4)n([C@@H]4CC[C@@H](NC(=O)OC)C4)c(=O)n6C)cc3F)CC2)C[C@H]1C(=O)N[C@@H]1CCCc2ccccc21)C1CCCCC1` [Example 46, Methyl((1R,3R)-3-(7-(4-(4-(2-(((3S,5S)-1-((S)-2-cyclohexyl-2-((S)-2-(methylamino)propanamido)acetyl)-5-(((R)-1,2,3,4-tetrahydronaphthalen-1-yl)carbamoyl)pyrrolidin-3-yl)amino)-2-oxoethyl)piperidine-1-carbonyl)-3-fluorophenyl)-8-(1-isopropyl-1H-indazol-5-yl)-3-methyl-2-oxo-3,6-dihydroimidazo[4,5-d]pyrrolo[2,3-b]pyridin-1(2H)-yl)cyclopentyl)carbamate] was tested, and the “JAK2 % Degradation in SET2” value was “D (D: <20% to ≥10%)”.
With `COC(=O)N[C@@H]1CC[C@@H](n2c(=O)n(C)c3cnc4[nH]c(-c5ccc(C(=O)N6CCC(CN7CCN(c8cccc9c8C(=O)N(C8CCC(=O)NC8=O)C9=O)CC7)CC6)c(F)c5)c(-c5ccc6c(cnn6C(C)C)c5)c4c32)C1` (stereo partly drawn) [Example 1, Methyl((1R,3R)-3-(7-(4-(4-((4-(2-(2,6-dioxopiperidin-3-yl)-1,3-dioxoisoindolin-4-yl)piperazin-1-yl)methyl)piperidine-1-carbonyl)-3-fluorophenyl)-8-(1-isopropyl-1H-indazol-5-yl)-3-methyl-2-oxo-3,6-dihydroimidazo[4,5-d]pyrrolo[2,3-b]pyridin-1(2H)-yl)cyclopentyl)carbamate] the “JAK2 % Degradation in SET2” value was “A (A: ≥600% degradation)”.
